Experimental data as given in ChEMBL document CHEMBL1201862, “PubChem BioAssay data set” (2004).
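Five compound concentrations were applied to cells in 96-well plates for 48 hours; endpoints were derived by simple linear interpolation of the resulting dose-response curve. Abbreviation: GI50, concentration required for 50% inhibition of growth.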 Calls of active or inactive are those of the source. No stated cut-off is given here; in the data, active = GI50 up to about 1.1 µM and inactive = higher.

Experiments:
Experiment in all cases: DTP human tumour cell line panel, 48 h
[1] = system: IGROV-1
[2] = system: NCI-H460
[3] = system: M14
[4] = system: SNB-75
[5] = system: U-251
[6] = system: SNB-19
[7] = system: HCT-116
[8] = system: KM12
[9] = system: A498
[10] = system: RXF 393
[11] = system: Malme-3M
[12] = system: SK-MEL-2
[13] = system: K562
[14] = system: SF-295
[15] = system: HT-29

Measured: GI50

CN(c1ccccc1)c1nc(=[N+]2CCCC2)ss1.[O-][Cl+3]([O-])([O-])[O-]
inactive: [1] > 100 µM | [2] 1.85 µM | [3] > 100 µM | [4] > 100 µM | [5] > 100 µM | [6] > 100 µM | [7] > 100 µM | [8] > 100 µM | [9] > 100 µM | [10] 3.03 µM | [11] > 100 µM | [12] > 100 µM | [13] 74.5 µM

C/C(=N/Nc1ccc([N+](=O)[O-])cc1[N+](=O)[O-])C(CC(C(=O)NCc1ccccc1)/C(C)=N\Nc1ccc([N+](=O)[O-])cc1[N+](=O)[O-])C(=O)NCc1ccccc1 (centres undefined)
inactive: [1] 13.7 µM | [2] 5.51 µM | [3] 8.04 µM | [14] 5.89 µM | [4] 2.96 µM | [5] 3.25 µM | [6] 15.2 µM | [7] 4.88 µM | [15] 6.14 µM | [8] 4.86 µM | [9] 14.8 µM | [10] 4.24 µM | [11] 12.2 µM | [12] 10.1 µM

O=C(Cn1ccnc1[N+](=O)[O-])c1ccc(F)cc1
inactive: [1] > 100 µM | [2] > 100 µM | [3] > 100 µM | [14] > 100 µM | [4] > 100 µM | [5] > 100 µM | [6] > 100 µM | [15] > 100 µM | [8] > 100 µM | [9] > 100 µM | [10] > 100 µM | [11] > 100 µM | [12] > 100 µM | [13] > 100 µM

COC(=O)C1(c2ccc(OC)cc2)NC(c2ccccc2)C2C(=O)N(c3ccc(OC)cc3)C(=O)C21 (centres undefined)
inactive: [1] > 100 µM | [2] > 100 µM | [3] > 100 µM | [14] > 100 µM | [4] > 100 µM | [5] > 100 µM | [6] > 100 µM | [15] > 100 µM | [8] > 100 µM | [9] > 100 µM | [10] > 100 µM | [11] > 100 µM | [12] > 100 µM | [13] > 100 µM

Nc1cc[nH]c(=O)n1
inactive: [1] > 100 µM | [2] > 100 µM | [3] > 100 µM | [14] > 100 µM | [4] > 100 µM | [5] > 100 µM | [7] > 100 µM | [15] > 100 µM | [8] > 100 µM | [9] > 100 µM | [10] > 100 µM | [11] > 100 µM | [12] > 100 µM | [13] > 100 µM
